What was measured:
Coagulation factor X [1] = molecular target: T1, Coagulation factor X (Homo sapiens, UniProt P00742); test: Inhibitory concentration against human Coagulation factor X
[2] = molecular target: T2, Vitamin K-dependent protein C (Homo sapiens, UniProt P04070); test: Inhibitory concentration of compound was determined against activated protein C
[3] = molecular target: Tissue-type plasminogen activator (Homo sapiens, UniProt P00750); test: Inhibitory concentration against tissue type plasminogen activator
Serine protease 1 = Serine protease 1 (Homo sapiens, UniProt P07477); test: Inhibitory concentration of compound was determined against trypsin
Coagulation factor X [4] = molecular target: T1, Coagulation factor X; test: Binding affinity against Coagulation factor X
[5] = Half-life determined in rat; format: ADME, organism-based; conditions: in vivo
[6] = Volume of distribution in rat; format: ADME, organism-based; conditions: in vivo
Plasminogen = test: Inhibitory concentration of compound was determined against Plasmin
Prothrombin = Prothrombin (Homo sapiens, UniProt P00734); test: Inhibitory concentration of compound was determined against thrombin
[7] = Clearance rate in rat; format: ADME, organism-based; conditions: in vivo
[8] = Bioavailability in rat; format: ADME, organism-based; conditions: in vivo
Kallikrein-1 = Kallikrein-1 (Homo sapiens, UniProt P06870); test: Inhibitory concentration of compound was determined against kallikrein
Coagulation factor X [9] = molecular target: T1, Coagulation factor X; test: In vitro anticoagulant potency measured in human plasma by thrombin generation (TG) assay expressed as 2 x TG; format: functional, cell-free
[10] = molecular target: T2, Vitamin K-dependent protein C; test: Inhibitory concentration of compound was determined against activated protein C (aPC)

Sequence of Tissue-type plasminogen activator (P00750 whole entry): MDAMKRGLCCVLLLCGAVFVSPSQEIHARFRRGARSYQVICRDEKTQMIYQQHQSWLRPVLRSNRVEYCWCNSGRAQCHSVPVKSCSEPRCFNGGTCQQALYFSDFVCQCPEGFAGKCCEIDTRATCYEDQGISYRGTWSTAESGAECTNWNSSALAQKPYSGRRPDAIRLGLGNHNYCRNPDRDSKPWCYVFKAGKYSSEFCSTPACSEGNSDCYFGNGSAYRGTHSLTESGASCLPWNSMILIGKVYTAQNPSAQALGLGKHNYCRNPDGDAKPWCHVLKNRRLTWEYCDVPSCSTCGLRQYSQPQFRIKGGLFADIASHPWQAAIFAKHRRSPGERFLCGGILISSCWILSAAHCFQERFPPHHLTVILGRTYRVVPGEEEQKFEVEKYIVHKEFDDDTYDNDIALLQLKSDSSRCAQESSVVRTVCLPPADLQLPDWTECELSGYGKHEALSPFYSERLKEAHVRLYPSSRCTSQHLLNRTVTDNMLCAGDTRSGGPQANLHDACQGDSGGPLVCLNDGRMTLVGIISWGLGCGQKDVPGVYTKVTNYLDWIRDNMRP
Sequence of Kallikrein-1 (P06870 whole entry): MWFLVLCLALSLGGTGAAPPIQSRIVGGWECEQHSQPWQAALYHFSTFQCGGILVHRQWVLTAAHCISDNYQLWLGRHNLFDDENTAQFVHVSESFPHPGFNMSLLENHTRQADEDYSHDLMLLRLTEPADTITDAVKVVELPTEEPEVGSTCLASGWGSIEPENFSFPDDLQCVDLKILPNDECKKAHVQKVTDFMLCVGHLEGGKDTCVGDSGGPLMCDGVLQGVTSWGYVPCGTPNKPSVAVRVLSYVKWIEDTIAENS
T1 sequence (P00742 41-179 limits assumed): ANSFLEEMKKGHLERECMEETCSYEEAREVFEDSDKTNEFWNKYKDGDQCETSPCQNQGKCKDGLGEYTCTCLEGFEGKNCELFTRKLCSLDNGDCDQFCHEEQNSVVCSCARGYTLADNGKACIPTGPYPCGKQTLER
T1 sequence (P00742 235-488 limits assumed): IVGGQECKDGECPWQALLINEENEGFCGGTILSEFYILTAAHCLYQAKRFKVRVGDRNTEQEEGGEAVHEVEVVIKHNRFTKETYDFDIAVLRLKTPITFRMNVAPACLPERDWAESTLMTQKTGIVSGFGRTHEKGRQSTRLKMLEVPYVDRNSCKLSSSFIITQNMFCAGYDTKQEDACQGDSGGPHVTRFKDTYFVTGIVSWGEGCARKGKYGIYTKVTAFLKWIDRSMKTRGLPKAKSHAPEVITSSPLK
Sequence of Plasminogen (Q01177 97-581 limits assumed): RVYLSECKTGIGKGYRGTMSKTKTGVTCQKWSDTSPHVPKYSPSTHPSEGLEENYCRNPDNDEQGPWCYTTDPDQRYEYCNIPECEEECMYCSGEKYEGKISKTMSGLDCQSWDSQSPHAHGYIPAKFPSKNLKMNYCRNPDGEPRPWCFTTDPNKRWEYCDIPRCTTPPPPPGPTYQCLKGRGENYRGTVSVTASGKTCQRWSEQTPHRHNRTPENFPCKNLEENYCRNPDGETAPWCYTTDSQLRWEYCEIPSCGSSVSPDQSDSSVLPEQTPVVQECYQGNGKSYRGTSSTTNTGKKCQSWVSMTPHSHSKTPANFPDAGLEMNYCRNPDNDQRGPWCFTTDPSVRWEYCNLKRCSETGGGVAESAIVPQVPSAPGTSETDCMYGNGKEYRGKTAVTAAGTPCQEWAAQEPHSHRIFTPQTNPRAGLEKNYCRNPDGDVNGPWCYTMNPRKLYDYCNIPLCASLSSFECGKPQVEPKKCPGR
Sequence of Plasminogen (Q01177 582-812 limits assumed): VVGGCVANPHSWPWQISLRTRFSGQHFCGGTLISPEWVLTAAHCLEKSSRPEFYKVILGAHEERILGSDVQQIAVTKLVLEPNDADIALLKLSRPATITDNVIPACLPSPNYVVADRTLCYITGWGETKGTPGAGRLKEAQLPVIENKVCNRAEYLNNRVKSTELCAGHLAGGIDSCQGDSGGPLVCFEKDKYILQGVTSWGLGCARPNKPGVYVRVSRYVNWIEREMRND
Sequence of Serine protease 1 (P07477 whole entry): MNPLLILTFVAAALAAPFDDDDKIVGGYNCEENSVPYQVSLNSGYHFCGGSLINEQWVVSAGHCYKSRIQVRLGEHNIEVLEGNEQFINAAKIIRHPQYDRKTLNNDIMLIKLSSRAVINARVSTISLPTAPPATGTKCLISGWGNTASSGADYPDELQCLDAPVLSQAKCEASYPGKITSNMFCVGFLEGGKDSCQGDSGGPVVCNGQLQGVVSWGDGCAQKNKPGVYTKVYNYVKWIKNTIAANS
T2 sequence (P04070 43-197 limits assumed): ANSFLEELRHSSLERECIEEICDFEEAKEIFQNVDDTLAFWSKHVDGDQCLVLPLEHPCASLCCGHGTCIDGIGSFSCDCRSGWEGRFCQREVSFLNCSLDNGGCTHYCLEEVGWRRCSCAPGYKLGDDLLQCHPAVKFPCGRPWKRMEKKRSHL
T2 sequence (P04070 212-461 limits assumed): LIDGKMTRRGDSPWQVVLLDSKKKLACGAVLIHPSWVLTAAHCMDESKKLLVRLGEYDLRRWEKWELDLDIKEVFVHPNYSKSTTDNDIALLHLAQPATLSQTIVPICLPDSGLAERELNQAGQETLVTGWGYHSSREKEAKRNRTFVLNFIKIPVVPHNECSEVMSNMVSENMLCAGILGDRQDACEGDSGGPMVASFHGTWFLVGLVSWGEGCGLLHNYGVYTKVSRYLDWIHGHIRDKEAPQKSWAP

IC50 (Coagulation factor X [1]) [nM]	Ki (Coagulation factor X [4]) [nM]	Activity (Coagulation factor X [9]) [µM]	SMILES	also measured
2	0.8	0.44	Cc1cc(C(=O)Nc2ccc(N3CCOCC3=O)cc2F)n(-c2cc3ccccc3cc2S(C)(=O)=O)n1	IC50 [2]: > 10000 nM; IC50 [3]: > 10000 nM; IC50 (Serine protease 1): > 10000 nM; half-life [5]: 0.5 h; Vd [6]: 0.8 L/kg; IC50 (Plasminogen): > 10000 nM; IC50 (Prothrombin): > 10000 nM; clearance [7]: 16.8 mL/min/kg; bioavailability [8]: 19.3%; IC50 (Kallikrein-1): > 10000 nM
58	–	–	Cc1cc(C(=O)Nc2ccc(N3CCCC3=O)cc2F)n(-c2cc3ccccc3cc2S(C)(=O)=O)n1	–
3	3.4	> 5	Cc1cc(C(=O)Nc2ccc(-c3ccccc3S(N)(=O)=O)cc2F)n(-c2ccc3cc(Cl)ccc3c2)n1	–
2	0.5	> 5	Cc1cc(C(=O)Nc2ccc(N3CCOCC3=O)cc2F)n(-c2cc3ccccc3cc2F)n1	–
29	–	–	Cc1cc(C(=O)Nc2ccc(-c3ccccc3S(N)(=O)=O)cc2F)n(-c2cc3ccccc3cc2F)n1	–
5	1.1	4.5	Cc1cc(C(=O)Nc2ccc(-c3ccccc3S(N)(=O)=O)cc2F)n(-c2cc3ccccc3cc2S(C)(=O)=O)n1	–
6	1.8	> 5	Cc1cc(C(=O)Nc2ccc(-c3ccccc3S(C)(=O)=O)cc2F)n(-c2ccc3cc(Cl)ccc3c2)n1	–
–	1.4	> 5	Cc1cc(C(=O)Nc2ccc(-c3ccccc3S(C)(=O)=O)cc2)n(-c2ccc3cc(Cl)ccc3c2)n1	–
2	2.4	2.2	Cc1cc(C(=O)Nc2ccc(-c3ccccc3CN)cc2F)n(-c2cc3ccccc3cc2F)n1	IC50 [3]: > 10000 nM; IC50 (Serine protease 1): > 10000 nM; IC50 [10]: > 10000 nM; half-life [5]: 2.5 h; Vd [6]: 11 L/kg; IC50 (Plasminogen): > 10000 nM; IC50 (Prothrombin): > 10000 nM; clearance [7]: 51.8 mL/min/kg; bioavailability [8]: 22.8%; IC50 (Kallikrein-1): > 10000 nM
9	1.7	1	Cc1cc(C(=O)Nc2ccc(-c3ccccc3S(C)(=O)=O)cc2F)n(-c2cc3ccccc3cc2S(C)(=O)=O)n1	IC50 [3]: > 10000 nM; IC50 (Serine protease 1): > 10000 nM; IC50 [10]: > 10000 nM; half-life [5]: 0.7 h; Vd [6]: 2.6 L/kg; IC50 (Plasminogen): > 10000 nM; IC50 (Prothrombin): > 10000 nM; clearance [7]: 41.2 mL/min/kg; bioavailability [8]: 18%; IC50 (Kallikrein-1): > 10000 nM
14	–	–	Cc1cc(C(=O)Nc2ccc(-c3ccccc3S(C)(=O)=O)cc2F)n(-c2cc3ccccc3cc2F)n1	–
680	–	–	Cc1cc(C(=O)Nc2ccc(N3CCNCCC3=O)cc2F)n(-c2cc3ccccc3cc2S(C)(=O)=O)n1	–
8	3.2	1.7	Cc1cc(C(=O)Nc2ccc(-n3ccnc3CN(C)C)cc2F)n(-c2cc3ccccc3cc2S(C)(=O)=O)n1	–
81	–	–	Cc1cc(C(=O)Nc2ccc(-c3ccccc3S(N)(=O)=O)cn2)n(-c2cc3ccccc3cc2F)n1	–
13	–	–	Cc1cc(C(=O)Nc2ccc(-n3ccnc3CN)cc2F)n(-c2cc3ccccc3cc2F)n1	–
39	–	–	Cc1cc(C(=O)Nc2ncc(-c3ccccc3S(N)(=O)=O)cn2)n(-c2cc3ccccc3cc2F)n1	–
46	–	–	Cc1cc(C(=O)Nc2ccc(-c3ccccc3S(N)(=O)=O)cn2)n(-c2cc3ccccc3cc2S(C)(=O)=O)n1	–
–	–	> 5	Cc1cc(C(=O)Nc2ccc(-c3ccccc3S(N)(=O)=O)cc2)n(-c2ccc3cc(Cl)ccc3c2)n1	–
7	2.5	2	Cc1cc(C(=O)Nc2ncc(-c3ccccc3S(N)(=O)=O)cn2)n(-c2ccc3cc(Cl)ccc3c2)n1	–
7	2.4	0.64	Cc1cc(C(=O)Nc2ccc(-c3ccccc3CN(C)C)cc2F)n(-c2cc3ccccc3cc2S(C)(=O)=O)n1	IC50 [3]: > 10000 nM; IC50 (Serine protease 1): > 10000 nM; IC50 [10]: > 10000 nM; half-life [5]: 2.8 h; Vd [6]: 27.3 L/kg; IC50 (Plasminogen): > 10000 nM; IC50 (Prothrombin): > 10000 nM; clearance [7]: 114 mL/min/kg; bioavailability [8]: 18%; IC50 (Kallikrein-1): > 10000 nM
5	1.9	2	Cc1cc(C(=O)Nc2ccc(-c3ccccc3S(N)(=O)=O)cn2)n(-c2ccc3cc(Cl)ccc3c2)n1	–
27	–	–	Cc1cc(C(=O)Nc2ccc(N3CCCCC3=O)cc2F)n(-c2cc3ccccc3cc2S(C)(=O)=O)n1	–
41	–	–	Cc1cc(C(=O)Nc2ccc(N3CCNCC3=O)cc2F)n(-c2cc3ccccc3cc2S(C)(=O)=O)n1	–

The remaining lines, values behind:

SMILES	IC50 (Coagulation factor X [1]) [nM]	Ki (Coagulation factor X [4]) [nM]	Activity (Coagulation factor X [9]) [µM]	also measured
Cc1cc(C(=O)Nc2ccc(-c3cccc(C(=N)N)c3)cc2)n(-c2ccc3cc(Cl)ccc3c2)n1	75	–	–	–
Cc1cc(C(=O)Nc2ccc(-c3cccnc3)cc2F)n(-c2ccc3cc(Cl)ccc3c2)n1	92	–	–	–
Cc1cc(C(=O)Nc2ccc(N3CCCCCC3=O)cc2F)n(-c2cc3ccccc3cc2S(C)(=O)=O)n1	47	–	–	–
Cc1cc(C(=O)Nc2ccc(N3CCOCC3=O)cc2F)n(-c2ccc3cc(Cl)ccc3c2)n1	1	0.5	5	–
Cc1cc(C(=O)Nc2ccc(-n3nccn3)cc2)n(-c2ccc3cc(Cl)ccc3c2)n1	2100	–	–	–
Cc1cc(C(=O)Nc2ccc(N3CCOCCC3=O)cc2F)n(-c2cc3ccccc3cc2S(C)(=O)=O)n1	23	–	–	–
Cc1cc(C(=O)Nc2ccc(-n3cccn3)cc2)n(-c2ccc3cc(Cl)ccc3c2)n1	215	–	–	–
Cc1cc(C(=O)Nc2ccc(N3CCCCC3)cc2)n(-c2ccc3cc(Cl)ccc3c2)n1	131	–	–	–
Cc1cc(C(=O)Nc2ccc(-n3ccnn3)cc2)n(-c2ccc3cc(Cl)ccc3c2)n1	112	–	–	–
Cc1cc(C(=O)Nc2ccc(N3CCCN(C)CC3)cc2)n(-c2ccc3cc(Cl)ccc3c2)n1	22	–	5	–
Cc1cc(C(=O)Nc2ccc(-c3ccccc3CN)cc2)n(-c2ccc3cc(Cl)ccc3c2)n1	39	–	–	–
Cc1cc(C(=O)Nc2ccc(-n3ccnc3)cc2)n(-c2ccc3cc(Cl)ccc3c2)n1	108	–	–	–
Cc1cc(C(=O)Nc2ccc(N3CCN(C)CC3)cc2)n(-c2ccc3cc(Cl)ccc3c2)n1	166	–	–	–
Cc1cc(C(=O)Nc2ccc(-c3ccccc3CN(C)C)cc2F)n(-c2ccc3cc(Cl)ccc3c2)n1	2	1.5	1.7	IC50 [3]: > 10000 nM; IC50 (Serine protease 1): > 10000 nM; IC50 [10]: > 10000 nM; half-life [5]: 7.2 h; Vd [6]: 22.1 L/kg; IC50 (Plasminogen): > 10000 nM; IC50 (Prothrombin): 5500 nM; clearance [7]: 35.7 mL/min/kg; bioavailability [8]: 35.2%; IC50 (Kallikrein-1): 9700 nM
Cc1cc(C(=O)Nc2ccc(-c3cccc(C(=N)N(C)C)c3)cc2)n(-c2ccc3cc(Cl)ccc3c2)n1	380	–	–	–
Cc1cc(C(=O)Nc2ccc(-n3ccnc3CN(C)C)cc2F)n(-c2ccc3cc(Cl)ccc3c2)n1	–	–	3	–

SMILES	IC50 (Coagulation factor X [1]) [nM]	Ki (Coagulation factor X [4]) [nM]	Activity (Coagulation factor X [9]) [µM]	also measured
Cc1cc(C(=O)Nc2ccc(N3CCOCC3)cc2)n(-c2ccc3cc(Cl)ccc3c2)n1	88	–	–	–
Cc1cc(C(=O)Nc2ccc(-c3ccccc3C(=N)N(C)C)cc2)n(-c2ccc3cc(Cl)ccc3c2)n1	26	–	–	–
Cc1cc(C(=O)Nc2ccc(N3CCOCC3=O)cc2)n(-c2ccc3cc(Cl)ccc3c2)n1	1	0.3	3	–
Cc1cc(C(=O)Nc2ccc(C(=O)N3CCCCC3)cc2)n(-c2ccc3cc(Cl)ccc3c2)n1	66	–	–	–
Cc1cc(C(=O)Nc2ccc(-n3ccnc3C)cc2)n(-c2ccc3cc(Cl)ccc3c2)n1	8	2.9	> 5	–
Cc1cc(C(=O)Nc2ccc(-c3cccc(CN)c3)cc2)n(-c2ccc3cc(Cl)ccc3c2)n1	70	–	–	–
Cc1cc(C(=O)Nc2ccc(-n3ccnc3CN(C)C)cc2)n(-c2ccc3cc(Cl)ccc3c2)n1	8	2.8	> 5	–
Cc1cc(C(=O)Nc2ccc(-c3ccncc3)cc2F)n(-c2ccc3cc(Cl)ccc3c2)n1	40	–	–	–
Cc1cc(C(=O)Nc2ccc(N3CCNCCC3=O)cc2)n(-c2ccc3cc(Cl)ccc3c2)n1	130	–	–	–
Cc1cc(C(=O)Nc2ccc(C(=O)N(C)C)cc2)n(-c2ccc3cc(Cl)ccc3c2)n1	13	–	> 5	–
Cc1cc(C(=O)Nc2ccc(-c3ccccc3CN(C)C)cc2)n(-c2ccc3cc(Cl)ccc3c2)n1	5	1.8	2	–
Cc1cc(C(=O)Nc2ccc(N3CCCNCC3)cc2)n(-c2ccc3cc(Cl)ccc3c2)n1	36	–	–	–
Cc1cc(C(=O)Nc2ccc(N3CCCCC3=O)cc2)n(-c2ccc3cc(Cl)ccc3c2)n1	3	1.1	> 5	–
Cc1cc(C(=O)Nc2ccc(-n3ccnc3C)cc2F)n(-c2ccc3cc(Cl)ccc3c2)n1	15	–	–	–
Cc1cc(C(=O)Nc2ccc(-c3ccccn3)cc2F)n(-c2ccc3cc(Cl)ccc3c2)n1	94	–	–	–
Cc1cc(C(=O)Nc2ccc(C(=O)N3CCCC3)cc2)n(-c2ccc3cc(Cl)ccc3c2)n1	6	1.8	> 5	–
